Among the data in patent publication US6887889B2 (Pharmacopeia Drug Discovery, Inc., priority 2001, dated 2005) are Ki values, retold here.

pKi: −log10 of the molar value.

T1 sequence (Q99705 whole entry): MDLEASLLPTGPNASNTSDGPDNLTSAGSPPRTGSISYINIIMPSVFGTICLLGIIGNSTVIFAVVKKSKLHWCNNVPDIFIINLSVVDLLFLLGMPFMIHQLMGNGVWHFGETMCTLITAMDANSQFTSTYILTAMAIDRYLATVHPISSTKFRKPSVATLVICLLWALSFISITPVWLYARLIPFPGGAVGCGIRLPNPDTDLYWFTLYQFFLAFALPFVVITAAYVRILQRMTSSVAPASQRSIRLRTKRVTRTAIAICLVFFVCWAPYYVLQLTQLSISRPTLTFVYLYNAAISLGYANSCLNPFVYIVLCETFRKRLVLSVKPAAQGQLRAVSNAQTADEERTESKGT

This assay addresses T1, hMCHR (Homo sapiens, UniProt Q99705).
T1 construct: host or cells: CHO (Chinese hamster ovary) cells, membranes
Briefly: MCH Assay PCOP Protocol: [125I]-MCH binding to hMCHR-CHO membranes, WGA-SPA beads. The conditions noted are these: hMCHR-CHO overexpressing membranes, 0.5 nM [125I]-MCH, 2 hours incubation. As for the experimental part:
A reaction mixture of 10 μg hMCHR-CHO overexpressing membranes (from Receptor Biology, Inc., Beltville, Md., or internally produced) and 100 μg/well WGA-SPA beads (from Amersham Pharmacia Biotech, Inc., Piscataway, N.J.)/100 μL was prepared in MCHR assay buffer (25 mM HEPES, pH 7.4, 10 mM NaCl, 10 mM MgCl2, 5 mM MnCl2, 0.1%BSA). […] The assay plates were shaken for 5 minutes on a plate shaker, then incubated for 2 hours before cpm/well were determined in a Microbeta Trilux counter (from Perkin Elmer Wallac, Inc., Gaithersburg, Md.).
Usually pKi stands for the negative decadic logarithm of the Ki, by convention in mol/L. A low value points to a large Ki. With `CN1CCC(CN2CCN(c3ccc(F)c(F)c3)C2=O)(c2ccc(-c3cccc(C#N)c3)cc2)CC1` [Example 13], the pKi is 7.00 to 7.96.

In the case of `N#Cc1cccc(-c2ccc(C3(CNC(=O)Nc4ccc(F)c(C(F)(F)F)c4)CCN(CC4CC4)CC3)cc2)c1` [Example 100], the pKi is 8.00 to 9.70.

In turn, `CN1CCC(CNC(=O)Nc2ccc(Cl)cc2C(F)(F)F)(c2ccc(-c3cccc(Cl)c3)cc2)CC1` [Example 59] gave a pKi of 5.26 to 7.00.

Compound `O=C(NCC1(c2ccc(-c3cccc(Cl)c3)cc2)CCN(CC2CC2)CC1)Nc1cc(C(F)(F)F)ccc1Cl` [Example 73] gave a pKi of 5.26 to 7.00.

In turn, `O=C(NCC1(c2ccc(-c3cccc(Cl)c3)cc2)CCN(CC2CC2)CC1)Nc1ccc(Cl)c(C(F)(F)F)c1` [Example 61] showed a pKi of 7.00 to 7.96.

Consider `CN1CCC(CNC(=O)Nc2cc(F)cc(F)c2)(c2ccc(-c3cccc(Cl)c3)cc2)CC1` [Example 55], for which the pKi is 8.00 to 9.70.

In turn, `O=C(NCC1(c2ccc(-c3cccc(Cl)c3)cc2)CCN(C2CCOCC2)CC1)Nc1cc(Cl)cc(Cl)c1` [Example 114] had a pKi of 5.26 to 7.00.

The compound `CC(=O)Nc1cccc(-c2ccc(C3(CNC(=O)Nc4cc(Cl)cc(Cl)c4)CCN(C(C)C)CC3)cc2)c1` [Example 79] had a pKi of 8.00 to 9.70.

Turning to `CN1CCC2(CC1)CN(C(=O)Nc1cc(Cl)cc(Cl)c1)c1ccc(-c3cccc(C#N)c3)cc12` [Example 37], the pKi is 7.00 to 7.96.

Compound `CCCN1CCC(CNC(=O)Nc2ccc(F)c(C(F)(F)F)c2)(c2ccc(-c3cccc(C#N)c3)cc2)CC1` [Example 103] had a pKi of 8.00 to 9.70.

Take `CCCN1CCC(CNC(=O)Nc2ccc(Cl)c(C(F)(F)F)c2)(c2ccc(-c3cccc(C#N)c3)cc2)CC1` [Example 71]: the pKi was 8.00 to 9.70.

With `CN(CC1(c2ccc(-c3cccc(C#N)c3)cc2)CCN(CC2CC2)CC1)C(=O)Nc1ccc(Cl)c(C(F)(F)F)c1` [Example 104], the pKi was 7.00 to 7.96.

`CN(C)S(=O)(=O)N1CCC(CNC(=O)Nc2cc(Cl)cc(Cl)c2)(c2ccc(-c3cccc(C#N)c3)cc2)CC1` [Example 31] showed a pKi of 7.00 to 7.96.

The compound `CCCN1CCC(CNC(=O)Nc2ccc(Cl)cc2C(F)(F)F)(c2ccc(-c3cccc(C#N)c3)cc2)CC1` [Example 47] gave a pKi of 7.00 to 7.96.

As to `COCCN1CCC2(CC1)CN(C(=O)Nc1ccc(F)c(Cl)c1)c1ccc(-c3cccc(C#N)c3)cc12` [Example 86], the negative logarithm of the Ki (pKi) was 5.26 to 7.00.

For the compound `CCCN1CCC2(CC1)CN(C(=O)Nc1ccc(Cl)c(Cl)c1)c1ccc(-c3cccc(C#N)c3)cc12` [Example 45], the pKi was 5.26 to 7.00.

`O=C(Nc1cc(Cl)cc(Cl)c1)N1CCC(CN(CC2CC2)CC2CC2)(c2ccc(-c3ccc4c(c3)OCO4)cc2)CC1` [Example 132] showed a pKi of 5.26 to 7.00.

`CC(=O)c1cccc(-c2ccc(C3(CNC(=O)Nc4cc(Cl)cc(Cl)c4)CCN(C(C)C)CC3)cc2)c1` [Example 80] showed a negative-log Ki (pKi) of 7.00 to 7.96.

`CN(CC1(c2ccc(-c3cccc(C#N)c3)cc2)CCN(CC2CC2)CC1)C(=O)Nc1cc(F)cc(F)c1` [Example 97] gave a pKi of 7.00 to 7.96.

`N#Cc1cccc(-c2ccc(C3(CNC(=O)Nc4ccc5c(c4)OCO5)CCN(CC4CC4)CC3)cc2)c1` [Example 98] gave a pKi of 7.00 to 7.96.

As to `CN1CCC(C(=O)Nc2cc(Cl)cc(Cl)c2)(c2ccc(-c3cccc(C#N)c3)cc2)CC1` [Example 15, 4-(3′-Cyano-biphenyl-4-yl)-1-methyl-piperidine-4-carboxylic acid (3.5-dichloro-phenyl)-amide], the pKi was 5.26 to 7.00.

On to `COCCN1CCC(CNC(=O)Nc2cc(Cl)cc(Cl)c2)(c2ccc(-c3cccc(Cl)c3)cc2)CC1` [Example 35], for which the pKi was 8.00 to 9.70.

For `CN(CC1(c2ccc(-c3cccc(C#N)c3)cc2)CCN(CC2CC2)CC1)C(=O)Nc1cc(Cl)cc(Cl)c1` [Example 14, 1-[4-(3′-Cyano-biphenyl-4-yl)-1-cyclopropylmethyl-piperidin-4-ylmethyl]-3-(3,5-dichloro-phenyl)-1-methyl-urea], the pKi was 8.00 to 9.70.

Regarding `CN1CCC(CNC(=O)Nc2cc(Cl)cc(Cl)c2)(c2ccc(-c3cc4ccccc4o3)cc2)CC1` [Example 40], the pKi is 5.26 to 7.00.

`COCCN1CCC(CNC(=O)Nc2ccc3c(c2)OCO3)(c2ccc(-c3cccc(C#N)c3)cc2)CC1` [Example 92] gave a pKi of 8.00 to 9.70.

Compound `COCCN1CCC(CNC(=O)Nc2cc(Cl)cc(Cl)c2)(c2ccc(-c3cccc(CO)c3)cc2)CC1` [Example 93] showed a pKi of 8.00 to 9.70.

Compound `CCCN1CCC(CNC(=O)Nc2ccc(Cl)c(C(F)(F)F)c2)(c2ccc(-c3cccc(Cl)c3)cc2)CC1` [Example 64] showed a pKi of 7.00 to 7.96.

As to `CN1CCC(CNC(=O)Nc2cc(Cl)cc(Cl)c2)(c2cccc(Cl)c2)CC1` [Example 24], the pKi is 5.26 to 7.00.

On to `CN1CCC(CNC(=O)Nc2cc(Cl)cc(Cl)c2)(c2ccc(-c3ccc4c(c3)OCO4)cc2)CC1` [Example 43], for which the pKi is 8.00 to 9.70.

Regarding `N#Cc1cccc(-c2ccc(C3(CNC(=O)Nc4ccc(F)c(Cl)c4)CCN(CCC(F)(F)F)CC3)cc2)c1` [Example 117], the pKi is 8.00 to 9.70.

`O=C(NCC1(c2ccc(-c3cccc(Cl)c3)cc2)CCN(CC2CC2)CC1)Nc1ccc(F)c(Cl)c1` [Example 49]: the pKi is 8.00 to 9.70.

As to `O=C(Nc1cc(Cl)cc(Cl)c1)N1CCC(CN(CC2CC2)CC2CC2)(c2ccc(-c3cccc(Cl)c3)cc2)CC1` [Example 126], the pKi was 5.26 to 7.00.

Take `N#Cc1cccc(-c2ccc(C3(CNC(=O)Nc4cc(C(F)(F)F)ccc4Cl)CCN(CC4CC4)CC3)cc2)c1` [Example 68]: the pKi is 7.00 to 7.96.

`N#Cc1cccc(-c2ccc(C3(CNC(=O)Cc4cc(F)cc(F)c4)CCN(CC4CC4)CC3)cc2)c1` [Example 10, N-[4-(3′-Cyano-biphenyl-4-yl)-1-cyclopropylmethyl-piperidin-4-ylmethyl]-2-(3.5-difluoro-phenyl)-acetamide] showed a pKi of 5.26 to 7.00.

`CN1CCC(CNC(=O)Cc2ccc(Cl)c(Cl)c2)(c2ccc(-c3cccc(C#N)c3)cc2)CC1` [Example 87] showed a pKi of 7.00 to 7.96.

For the compound `Cc1ccc(C2(CNC(=O)Nc3cc(Cl)cc(Cl)c3)CCNCC2)cc1` [Example 23], the pKi is 5.26 to 7.00.

Regarding `COCCN1CCC(CNC(=O)Nc2cc(F)cc(F)c2)(c2ccc(-c3cccc(C#N)c3)cc2)CC1` [Example 105], the pKi is 8.00 to 9.70.

With `CN(CC1(c2ccc(-c3cccc(C#N)c3)cc2)CCN(CC2CC2)CC1)C(=O)Nc1ccc(F)c(Cl)c1` [Example 99], the pKi is 7.00 to 7.96.

For `CCCN(CCC)CC1(c2ccc(-c3cccc(C#N)c3)cc2)CCN(C(=O)Nc2cc(Cl)cc(Cl)c2)CC1` [Example 133], the negative logarithm of the Ki (pKi) was 5.26 to 7.00.

Consider `COCCN1CCC(CNCc2cc(Cl)cc(Cl)c2)(c2ccc(-c3cccc(Cl)c3)cc2)CC1` [Example 129], for which the pKi was 5.26 to 7.00.

Consider `CC(C)COC(=O)NCC1(c2ccc(-c3cccc(C#N)c3)cc2)CCN(CC2CC2)CC1` [Example 12, [4-(3′-Cyano-biphenyl-4-yl)-1-cyclopropylmethyl-piperidin-4-ylmethyl]-carbamic acid isobutyl ester], for which the pKi was 5.26 to 7.00.

Consider `CC(C)CN1CCC(CNC(=O)Nc2cc(Cl)cc(Cl)c2)(c2ccc(-c3cccc(Cl)c3)cc2)CC1` [Example 112], for which the pKi was 7.00 to 7.96.

In turn, `CN1CCC(CNC(=O)Nc2cc(C(F)(F)F)ccc2Cl)(c2ccc(-c3cccc(Cl)c3)cc2)CC1` [Example 57] showed a pKi of 7.00 to 7.96.

Turning to `N#Cc1cccc(-c2ccc(C3(CNC(=O)Nc4ccc(Cl)cc4C(F)(F)F)CCN(CC4CC4)CC3)cc2)c1` [Example 60], the pKi is 5.26 to 7.00.

`N#Cc1cccc(-c2ccc(C3(CNC(=O)Nc4ccc(Cl)c(C(F)(F)F)c4)CCN(CC4CC4)CC3)cc2)c1` [Example 50]: the pKi was 8.00 to 9.70.

Take `CN1CCC(C(=O)NCc2cc(Cl)cc(Cl)c2)(c2ccc(-c3cccc(C#N)c3)cc2)CC1` [Example 16, 4-(3′-Cyano-biphenyl-4-yl)-1-methyl-piperidine-4-carboxylic acid 3,5-dichloro-benzylamide]: the pKi was 5.26 to 7.00.

Take `N#Cc1cccc(-c2ccc(C3(CNC(=O)Nc4cc(F)cc(F)c4)CCN(CC4CC4)CC3)cc2)c1` [Example 96]: the pKi is 8.00 to 9.70.

Turning to `CC(C)N1CCC(CNC(=O)Nc2cc(Cl)cc(Cl)c2)(c2ccc(-c3cccc(Cl)c3)cc2)CC1` [Example 83], the pKi was 8.00 to 9.70.

`CCN1CCC(CNC(=O)Nc2cc(Cl)cc(Cl)c2)(c2ccc(-c3cccc(OC(F)(F)F)c3)cc2)CC1` [Example 123] showed a pKi of 7.00 to 7.96.

`CN1CCC(CNC(=O)Nc2ccc(F)c(F)c2)(c2ccc(-c3cccnc3)cc2)CC1` [Example 30] showed a pKi of 7.00 to 7.96.

Turning to `N#Cc1cccc(-c2ccc(C3(CN(CC4CC4)CC4CC4)CCN(C(=O)Nc4cc(Cl)cc(Cl)c4)CC3)cc2)c1` [Example 130], the pKi was 5.26 to 7.00.

As to `N#Cc1cccc(-c2ccc(C3(CNC(=O)Nc4cc(Cl)cc(Cl)c4)CCN(C4CCOCC4)CC3)cc2)c1` [Example 109], the pKi is 8.00 to 9.70.

`N#Cc1cccc(-c2ccc(C3(CNC(=O)Nc4cc(Cl)cc(Cl)c4)CCN(CCC(F)(F)F)CC3)cc2)c1` [Example 118] showed a pKi of 8.00 to 9.70.

Compound `CN1CCC2(CC1)CN(C(=O)Nc1ccc(F)c(Cl)c1)c1cc(-c3cccc(C#N)c3)ccc12` [Example 17, 1-(3-Chloro-4-fluorophenyl)ureido-6-(3-cyanophenyl)-1′-methyl-spiro[indoline-3,4′-piperidine]] gave a pKi of 5.26 to 7.00.

In turn, “3-Chloro-N-[4-(3′-cyano-biphenyl-4-yl)-1-cyclopropylmethyl-piperidin-4-ylmethyl]-4-fluoro-benzenesulfonamide [Example 11]” had a pKi of 5.26 to 7.00.

`CCCN1CCC(CNC(=O)Nc2ccc(Cl)cc2C(F)(F)F)(c2ccc(-c3cccc(Cl)c3)cc2)CC1` [Example 52] showed a pKi of 5.26 to 7.00.
